Measured values as given in US5409933A, “Quinoline derivatives and processes for preparing the same” (priority 1993, dated 1995).
Counter-ions that a name gives are not always drawn. Like-named read-outs stand apart in the source and are kept apart here.

Columns and labels:
Test in all cases: In Vitro Anti-Bacterial Activity Test (MIC, agar dilution)
Assay type in all cases: cell-based
[1] = test system: Streptococcus pyogenes 77A
Description: (§1) The above in vitro antibacterial activity test was carried out in accordance with the agar culture medium dilution method (Hoechst 345) by using Muller-Hinton agar medium to determine the minimum inhibitory concentration (MIC).
(§2) The strains having 10^7 C.F.U./ml were inoculated on the culture medium, and the growth of the strains was observed after incubating them at 37° C. for 18 hours, in which ciprofloxacin was used as a control antibacterial agent. In this test, twenty typical strains were used.

[2] = test system: Staphylococcus aureus 503; details: Staphylococcus aureus 503; Muller-Hinton agar, 37° C., 18 hours; read-out: MIC
Description: as §1, §2

[3] = test system: Pseudomonas aeruginosa 1771; details: Pseudomonas aeruginosa 1771; Muller-Hinton agar, 37° C., 18 hours; read-out: MIC
Description: as §1, §2

Enterobacter cloacae P99 = details: Enterobacter cloacae, P99, 18 h
Description: as §1, §2

[4] = test system: Pseudomonas aeruginosa 1592E; details: Muller-Hinton agar, 37° C., 18 hours, read-out: MIC
Description: as §1, §2

[5] = test system: Staphylococcus aureus SG511; details: Staphylococcus aureus SG511; Muller-Hinton agar, 37° C., 18 hours; read-out: MIC
Description: as §1, §2

[6] = test system: Streptococcus pyogenes 308A; details: Muller-Hinton agar, 37° C., 18 hours, read-out: MIC
Description: as §1, §2

[7] = test system: Klebsiella aerogenes 1522E; details: Klebsiella aerogenes, 1522E, 18 h, Klebsiella aerogenes 1522E; Muller-Hinton agar, 37° C., 18 hours; read-out: MIC
Description: as §1, §2

[8] = test system: Streptococcus faecium MD8b; details: Enterococcus faecium, Muller-Hinton agar, 37° C., 18 hours, read-out: MIC
Description: as §1, §2

Klebsiella oxytoca 1082E = details: Klebsiella oxytoca 1082E; Muller-Hinton agar, 37° C., 18 hours; read-out: MIC
Description: as §1, §2

[9] = test system: Staphylococcus aureus 285; details: Staphylococcus aureus, 285, 18 h, Staphylococcus aureus 285; Muller-Hinton agar, 37° C., 18 hours; read-out: MIC
Description: as §1, §2

Escherichia coli TEM = details: Escherichia coli, 18 h, Muller-Hinton agar, 37° C.
Description: as §1, §2

Salmonella typhimurium = details: Salmonella enterica
Description: as §1, §2

[10] = test system: Pseudomonas aeruginosa 1771M; details: Pseudomonas aeruginosa, 1771M, 18 h, Muller-Hinton agar, 37° C.
Description: as §1, §2

[11] = test system: Pseudomonas aeruginosa 9027; details: Muller-Hinton agar, 37° C., 18 hours, read-out: MIC
Description: as §1, §2

Escherichia coli DC0 = details: Muller-Hinton agar, 37° C., 18 hours, read-out: MIC
Description: as §1, §2

Escherichia coli 078 = test system: Escherichia coli 078
Description: as §1, §2

Escherichia coli 1507E = details: Muller-Hinton agar, 37° C.
Description: as §1, §2

[12] = test system: Enterobacter cloacae 1321E
Description: as §1, §2

Escherichia coli DC2 = test system: Escherichia coli DC2
Description: as §1, §2

[13] = Streptococcus pyogenes 77A, Muller-Hinton agar, 37° C., 18 hours, read-out: MIC
[14] = Salmonella typhimurium, Muller-Hinton agar, 37° C., 18 hours, read-out: MIC
[15] = Enterobacter cloacae 1321E, Muller-Hinton agar, 37° C., 18 hours, read-out: MIC
[16] = Escherichia coli 078, Muller-Hinton agar, 37° C., 18 hours, read-out: MIC
[17] = Streptococcus pyogenes, 77A, 18 h

SMILES	MIC [1, 13] [µg/mL]	MIC [2] [µg/mL]	MIC [3] [µg/mL]	MIC (Enterobacter cloacae P99) [µg/mL]	MIC [4] [µg/mL]	MIC [5] [µg/mL]	MIC [6] [µg/mL]	MIC [7] [µg/mL]	MIC [8] [µg/mL]	MIC (Klebsiella oxytoca 1082E) [µg/mL]	MIC [9] [µg/mL]	MIC (Escherichia coli TEM) [µg/mL]	MIC (Salmonella typhimurium; [14]) [µg/mL]	MIC [10] [µg/mL]	MIC [11] [µg/mL]	MIC (Escherichia coli DC0) [µg/mL]	MIC (Escherichia coli 1507E; Escherichia coli, 1507E, 18 h) [µg/mL]	MIC (Escherichia coli DC2; Escherichia coli, DC2, 18 h) [µg/mL]	MIC [12, 15] [µg/mL]	MIC (Escherichia coli 078; [16]) [µg/mL]	other results
CCOC(=O)CC(=O)c1cn(C2CC2)c2c(Cl)c(N3CC=C(CNC)C3)c(F)cc2c1=O [Example 29, 1-cyclopropyl-6-fluoro-8-chloro-7-(3-methylaminomethyl-2,5-dihydropyrrol-1-yl)-3-(2-ethoxycarbonylacetyl)-1,4-dihydro-4-oxoquinoline hydrochloride]	0.098	0.013	1.56	0.013	0.781	0.013	0.391	0.013	0.098	0.049	0.049	0.013	0.391	0.391	1.56	0.195	0.049	0.098			MIC (Escherichia coli 078; Escherichia coli, 078, 18 h): 0.013 µg/mL; MIC ([12]; Enterobacter cloacae, 1321E, 18 h): 0.007 µg/mL
CCOC(=O)C(C#N)C(=O)c1cn(C2CC2)c2c(Cl)c(N3CCC(N)C3)c(F)cc2c1=O (centres unmarked) [Example 39, 1-cyclopropyl-6-fluoro-8-chloro-7-(3-aminopyrrolidin-1-yl)-3-(2-cyano-2-ethoxycarbonylacetyl)-1,4-dihydro-4-oxoquinoline hydrochloride]	6.25	1.56	12.5	0.391	12.5	1.56	25	0.781	6.25	0.049	1.56	0.391		3.12	12.5	6.25	0.781		0.049		MIC (Salmonella typhimurium; TYPHIMURIUM, 18 h): 0.391 µg/mL; MIC (Escherichia coli 078; Escherichia coli, 078, 18 h): 0.049 µg/mL; MIC (Escherichia coli DC2; Escherichia coli DC2, Muller-Hinton agar, 37° C., 18 hours, read-out: MIC): 3.12 µg/mL
CCOC(=O)CC(=O)c1cn(C2CC2)c2c(F)c(N3CCC(N)C3)c(F)cc2c1=O (centres unmarked) [Example 21, 1-cyclopropyl-6,8-difluoro-7-(3-aminopyrrolidin-1-yl)-3-(2-ethoxycarbonylacetyl)-1,4-dihydro-4-oxoquinoline hydrochloride]	0.391	0.049	0.195	0.007	0.391	0.049	0.781	0.025	0.781	0.004	0.049	0.013	0.013	0.098	0.391	0.098	0.013	0.049	< 0.002	0.004	
CCOC(=O)C(C(=O)OCC)C(=O)c1cn(C2CC2)c2c(Cl)c(N3CC[C@@H](N)C3)c(F)cc2c1=O [Example 23, 1-cyclopropyl-6-fluoro-8-chloro-7-(3-3R-aminopyrrolidin-1-yl)-3-(2,2-diethoxycarbonylacetyl)-1,4-dihydro-4-oxoquinoline hydrochloride]	0.195	0.049	0.391	0.004	0.391	0.049	0.781	0.025	0.195	< 0.002	0.049	0.004	0.004	0.098	0.781	0.195	0.013	0.049	< 0.002	< 0.002	
CC1CN(c2c(F)cc3c(=O)c(C(=O)C[N+](=O)[O-])cn(C4CC4)c3c2F)CCN1 (centres unmarked) [Example 7, 1-cyclopropyl-6,8-difluoro-7-(3-methylpiperazin-1-yl)-3-(2-nitroacetyl)-1,4-dihydro-4-oxoquinoline hydrochloride]		0.391	1.56	0.391	0.781	0.391	1.56	0.391	0.781	< 0.002	0.391	0.195	0.098	0.391	0.781	0.391	0.025	0.391	0.013		MIC [1, 17]: 0.781 µg/mL; MIC (Escherichia coli 078; Escherichia coli, 078, 18 h): 0.049 µg/mL
CCOC(=O)C(C(=O)OCC)C(=O)c1cn(C2CC2)c2c(Cl)c(N3CCC(N)C3)c(F)cc2c1=O (centres unmarked) [Example 22, 1-cyclopropyl-6-fluoro-8-chloro-7-(3-aminopyrrolidin-1-yl)-3-(2,2-diethoxycarbonylacetyl)-1,4-dihydro-4-oxoquinoline hydrochloride]		0.049	0.781	0.004	0.781	0.049	0.391	0.025	0.391	< 0.002	0.098	< 0.002	0.004	0.195	0.781	0.098		0.025	< 0.002	0.004	MIC [1, 17]: 0.781 µg/mL; MIC (Escherichia coli 1507E; 18 hours, read-out: MIC): < 0.002 µg/mL
CNCC1=CCN(c2c(F)cc3c(=O)c(C(=O)C[N+](=O)[O-])cn(C4CC4)c3c2F)C1 [Example 15, 1-cyclopropyl-6,8-difluoro-7-(3-methylaminomethyl-2,5-dihydropyrrol-1-yl)-3-(2-nitroacetyl)-1,4-dihydro-4-oxoquinoline hydrochloride]	0.025	< 0.002	0.391	0.004	0.391	< 0.002	0.049	0.013	0.025	< 0.002	0.004	0.004	< 0.002	0.195	0.781	0.098	0.007	0.013	< 0.002	< 0.002	
